# Values quoted from earlier work as cited in US9173940B1, “Mixture of betamethasone and tranilast with a transdermal gel for scar treatment” (PROFESSIONAL COMPOUNDING CENTERS OF AMERICA (PCCA), priority 2014, dated 2015).
# Conditions: taken orally
smiles,measurement,value
COc1ccc(/C=C/C(=O)Nc2ccccc2C(=O)O)cc1OC [Tranilast],oral absorption,well-absorbed
